# Experiments:
# [1] = target: recombinant kinase domain of the human c-Met (amino acids 960-1390) (Homo sapiens (Human), UniProt P08581); experiment: c-Met receptor tyrosine kinase homogeneous time-resolved fluorescence assay (alternative format); type: biochemical; settings: HTRF format; ATP 10 μM
# Text: c-Met Receptor Tyrosine Kinase Homogeneous Time-Resolved Fluorescence Assay (Alternative Format):
# The N-terminally His6-tagged recombinant kinase domain of the human c-Met (amino acids 960-1390), expressed in insect cells (SF21) and purified by Ni-NTA affinity chromatography and consecutive size exclusion chromatography (Superdex 200), is used. Alternatively, commercially available c-Met (Millipore) can be used. As substrate for the kinase reaction, the biotinylated poly-Glu, Tyr (4:1) copolymer (#61GTOBLC, Cis Biointernational, Marcoule, France) is used.
# For the assay, […] of a 100-fold concentrated solution of the test compound in DMSO is pipetted into a black low-volume 384-well microtiter plate (Greiner Bio-One, Frickenhausen, Germany). 2 μL of a solution of c-Met in assay buffer [25 mM Hepes/NaOH, pH 7.5; 5 mM MgCl2; 5 mM MnCl2; 2 mM dithiothreitol; 0.1% (v/v) Tween 20 (Sigma); 0.1% (w/v) bovine serum albumin] are added, and the mixture is incubated for 15 min at 22° C. to allow pre-binding of the test compound to the enzyme before the start of the kinase reaction. Then, the kinase reaction is started by the addition of 3 μL of a solution of adenosine triphosphate (ATP, 16.7 μM; final concentration in the 5 μL assay volume is 10 μM) and substrate (2.27 μg/mL, final concentration in the 5 μL assay volume is 1.36 μg/mL ˜30 nM) in assay buffer, and the resulting mixture is incubated for a reaction time of 30 min at 22° C. The concentration of c-Met in the assay is adjusted depending on the activity of the enzyme lot and is appropriately chosen to have the assay in the linear range; typical enzyme concentrations are in the range of about 0.03 nM (final concentration in the 5 μL assay volume). The reaction is stopped by the addition of 5 μL of a solution of HTRF detection reagents [40 nM streptavidine-X Lent and 2.4 nM PT66-Eu-chelate, an europium-chelate labelled anti-phosphotyrosine antibody (Perkin-Elmer)] in an aqueous EDTA solution [100 mM EDTA, 0.2% (w/v) bovine serum albumin in 50 mM HEPES/NaOH, pH 7.5].
# The resulting mixture is incubated for 1 h at 22° C. to allow the binding of the biotinylated phosphorylated peptide to the streptavidine-XLent and the PT66-Eu-chelate. Subsequently, the amount of phosphorylated substrate is evaluated by measurement of the resonance energy transfer from the PT66-Eu-chelate to the streptavidine-XLent. Therefore, the fluorescence emissions at 620 nm and 665 nm after excitation at 350 nm are measured in an HTRF reader, e.g. Rubystar (BMG Lab-technologies, Offenburg, Germany) or Viewlux (Perkin-Elmer). The ratio of the emissions at 665 nm and at […] is taken as the measure for the amount of phosphorylated substrate. The data are normalised (enzyme reaction without inhibitor=0% inhibition; all other assay components but no enzyme=100% inhibition).
# [2] = Caco-2 permeability assay; type: in vitro ADME; settings: human, apical to basolateral, 2 h at 37° C., Table 3, read-out: Caco-2 permeability PappA-B
# Text: Caco-2 Permeability Assay:
# The in vitro permeation of a test compound across a Caco-2 cell monolayer is a well-established assay system to predict the permeability from the gastro-intestinal tract [cf. P. Artursson and J. Karlsson: Correlation between oral drug absorption in humans and apparent drug permeability coefficients in human intestinal epithelial (Caco-2) cells, Biochem. Biophys. 175 (3), 880-885 (1991)]. The permeability of the compounds of the present invention in such Caco-2 cells was determined as described below:
# Human caco-2 cells (ACC No. 169, DSMZ, German Collection of Microorganisms and Cell Cultures, Braunschweig, Germany) are seeded on 24-well insert plates and are allowed to grow for 14-16 days. For permeability studies, the test compounds are dissolved in DMSO and diluted to the final test concentration of 2 μM with transport buffer [Hanks' Buffered Salt Solution, Gibco/Invitrogen, further supplemented with glucose (final concentration 19.9 mM) and HEPES (final concentration 9.8 mM)]. For determination of the apical to basolateral permeability (PappA-B), the test compound solution is added to the apical side of the cell monolayer and transport buffer to the basolateral side of the monolayer; for determination of the basolateral to apical permeability (PappB-A), the test compound solution is added to the basolateral side of the cell monolayer and transport buffer to the apical side of the monolayer. Samples are taken from the donor compartment at the beginning of the experiment to confirm mass balance. After an incubation of 2 h at 37° C., samples are taken from both compartments. Samples are analyzed by LC-MS/MS, and the apparent permeability coefficients are calculated. Lucifer Yellow permeability is assayed for each cell monolayer to ensure cell monolayer integrity, and the permeability of Atenolol (low permeability marker) and Sulfasalazine (marker for active excretion) is determined for each batch as quality control.
# [3] = Pharmacokinetics after peroral administration of test compounds; type: in vivo, rat; settings: for in vivo PK, rat p.o. F / in vivo PK, rat p.o. AUCnorm: male Wistar rats; for in vivo PK, rat p.o. F: bioavailability; for in vivo PK, rat p.o. AUCnorm: dose and body weight-normalized AUC; for Fraction absorbed fabs, calc: rat p.o., fabs,calc=[F/Fmax,calc]*100
# Protocol: Pharmacokinetics after Peroral Administration of Test Compounds: Male Wistar rats (Harlan Laboratories) are anesthetized and a catheter is inserted into the jugular vein of the rat. The next day, a defined dose of the test compound is administered perorally. Blood samples are collected through the jugular catheter during the next 24 h (8-11 time points). Blood is centrifuged in heparin-tubes, and each plasma sample is treated with acetonitrile for protein precipitation. After centrifugation, the test compound in the supernatant is quantified using an LC-MS/MS method. The determined plasma concentrations are used for the determination of pharmacokinetic parameters, such as AUC (area under the plasma concentration vs. time curve), Cmax (highest test compound concentration observed in plasma following administration), t1/2 (half-life) and F (bioavailability). The fraction of the dose absorbed (fabs,calc) is calculated by the equation fabs,calc=[F/Fmax,calc]*100, wherein F is the determined bioavailability after peroral administration and Fmax,calc is the theoretically maximum achievable bioavailability considering the determined blood clearance and assuming that the test compound is completely absorbed.
# Chain of recombinant kinase domain of the human c-Met (amino acids 960-1390) (P08581 960-1390): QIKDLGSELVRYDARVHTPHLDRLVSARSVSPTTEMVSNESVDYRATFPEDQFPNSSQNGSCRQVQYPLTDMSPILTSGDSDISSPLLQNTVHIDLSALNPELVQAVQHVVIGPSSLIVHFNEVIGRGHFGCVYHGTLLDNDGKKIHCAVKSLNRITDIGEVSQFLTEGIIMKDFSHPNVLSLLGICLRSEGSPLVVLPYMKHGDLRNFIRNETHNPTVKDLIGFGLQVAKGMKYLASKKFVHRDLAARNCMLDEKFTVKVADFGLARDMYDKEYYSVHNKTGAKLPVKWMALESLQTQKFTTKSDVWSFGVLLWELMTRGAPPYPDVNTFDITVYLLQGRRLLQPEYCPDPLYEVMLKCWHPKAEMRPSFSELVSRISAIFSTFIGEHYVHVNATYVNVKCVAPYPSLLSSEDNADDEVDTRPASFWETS
SMILES,IC50 [1] [nM],"Papp at 2 h, 2 μM [2] [×10⁻⁶ cm/s]","in vivo PK, rat p.o. F [3] [%]","in vivo PK, rat p.o. AUCnorm [3] [kg·h/L]","Fraction absorbed fabs, calc [3] [%]"
"CC1=C(C#N)C(c2ccc3[nH]nc(C)c3c2)C(C#N)=C(C(F)F)N1 (single isomer, unassigned) [Example 3, 2-(Difluoromethyl)-6-methyl-4-(3-methyl-1H-indazol-5-yl)-1,4-dihydropyridine-3,5-dicarbonitrile]",2,16.4,33,0.16,131
"Cc1n[nH]c2cc(F)c(C3C(C#N)=C(C(F)F)NC(C(F)F)=C3C#N)cc12 [Example 14, 2,6-Bis(difluoromethyl)-4-(6-fluoro-3-methyl-1H-indazol-5-yl)-1,4-dihydropyridine-3,5-dicarbonitrile]",3,27.1,62,4.73,67
"CC1=C(C#N)C(c2ccc3[nH]nc(C)c3c2)C(C#N)=C(C(F)(F)F)N1 (single isomer, unassigned) [Example 6]",1,31.1,62,0.70,104

# From US9422263B2, “Fluoro-substituted 3,5-dicyano-4-(1H-indazol-5-yl)-2,6-dimethyl-1,4-dihydropyridine derivatives and methods of use thereof” (BAYER PHARMA AKTIENGESELLSCHAFT, priority 2009, dated 2016)
